The source of these data is patent US4910012A, “Products containing Tc-99-m-ωalkylphosphinico-1-hydroxyalkane-1,1-diphosphonates for bone scintigraphy and a process for the preparation of these products” (Hoechst Aktiengesellschaft, priority 1988, dated 1990).

A short description of data set [1]: Stability of Tc-99m-HMPD by gel chromatography on polyacrylamide gel (Bio Gel P-10), up to 24 h after preparation. The class given is physicochemical. The following applies: for % Activity in the HMPD: eluent 0.9% NaCl. How it is done:
The labeling yield of Tc-99m-HMPD was determined, and the purity and stability were tested, by thin-layer chromatographic methods, gel filtration and HPLC.
2. The stability for a period of up to 24 h after preparation was tested by gel chromatography on polyacrylamide gel (Bio Gel® P-10, manufactured by Bio-Rad, California, USA) using 0.9% NaC1 solution as eluent (FIG. 1). The proportion of the activity in the HMPD, that in the form of pertechnetate and that remaining on the column were measured (Table 1). The latter is greater than the proportion of ^99m -Tc^4+ because non-specific adsorption of technetium to the support material is always observed.

Data set [2] is described as follows: Organ distribution of Tc-99m-HMPD in the rat 2 h after injection as a function of the amount administered (Table 3). The class given is in vivo. The following applies: for Bladder + urine / Blood / Bone / Kidneys / Liver / Lung / Muscle / Stomach / Thyroid: i.v., 2 h. The protocol:
The product prepared as in Example 2 (pH=7) was used for the following experiment.
Organ distribution of Tc-99m-HMPD in the rat
(n = 3) 2 h after injection as a function of
the amount administered (mg) and as a % of the
injected dose per organ or tissue. The various
HMPD amounts were administered i.v. in 0.1 ml

In another data set the test system is osteosarcoma. Kind of data set: Scintigraphy in osteosarcoma model, ratio (Q) of count density in the tumor to that in the contralateral tibia. Format: in vivo, Sprague-Dawley rats. The settings on record: 0.01 mg i.v., 9.25 MBq Tc-99m, 4 weeks after tumor implantation. How it is done: Tc-99m-HMPD was tested on the model of osteosarcoma in Sprague-Dawley rats. […] The investigation was carried out 4 weeks after tumor implantation on a total of 30 animals. 1. Investigation schedule:
Day 1 Tc-99m-MDP (reference substance)
Scintigraphy 1, 90 and 180 minutes after injection
Storage of the scintigraphic data for the evaluation 2. Evaluation
Measurement of whole-body activity from the scintigraphic data
Ratio (Q) of the count density per unit area in the tumor to that in the contralateral tibia
Comparison of the quotient QHMPD with that for the products QMDP and QDBA-MDP.

A further data set relates to lesion / normal bone. Kind of data set: Ratio Q of Tc-99m uptake in a lesion to uptake in normal bone (own investigations). Format: in vivo. The settings on record: compared with A-EDP, DMA-MDP, EA-MDP, DEA-MDP; Q=(% Tc/g of lesion)/(% Tc/g of normal bone). From the text:
Many investigations carried out to date have been devoted to the search for compounds having a more favorable uptake ratio between the lesion and normal skeleton.

The conditions of data set [3]: in words, cited from earlier work.
Another data set deals with bone lesions. The following applies: compared with DPD and MDP; cited from earlier work.

Regarding “1-hydroxy-3-methylphosphinico-1,1-propanediphosphonic acid [Tc-99m-HMPD]”, in data set [1] (5 min after preparation), the “% Tc-99m Residue on the column” value was 6.8%, the “% Tc-99m as pertechnetate” value is listed as 0.6% and the “% Activity in the HMPD” value is on record as 92.6%. Moreover, in data set [1] (2 h after preparation), the “% Tc-99m Residue on the column” value was 7.5%, the “% Tc-99m as pertechnetate” value is recorded as 0.4% and the “% Activity in the HMPD” value amounted to 92.1%. Moreover, in data set [1] (7 h after preparation), the “% Tc-99m Residue on the column” value came out at 4.6%, the “% Tc-99m as pertechnetate” value is given as 0.4% and the “% Activity in the HMPD” value worked out at 95.0%. In data set [1] (24 h after preparation), the “% Tc-99m Residue on the column” value is recorded as 5.2%, the “% Tc-99m as pertechnetate” value is 0.8% and the “% Activity in the HMPD” value is given as 94.0%. Moreover, in data set [1] (summary in words), the product stability entry is on record as “stable for a whole working day”. Moreover, the “proportion of Tc-99m activity present in the HMPD” value in data set [1] (up to 24 h after preparation) was “more than 90%”. Also, in data set [2] (0.001 mg), the “Bladder + urine” value is 54.1 % of the injected dose per org, the Blood is reported as 0.7 % of the injected dose per org, the Bone is 32.9 % of the injected dose per org and the Kidneys is listed as 1.51 % of the injected dose per org. Further, in data set [2] (0.001 mg), the Liver was 0.27 % of the injected dose per org, the Lung is listed as 0.080 % of the injected dose per org, the Muscle is 0.8 % of the injected dose per org and the Stomach is 0.151 % of the injected dose per org. The Thyroid in data set [2] (0.001 mg) is reported as 0.008 % of the injected dose per org. Also, in data set [2] (0.01 mg), the “Bladder + urine” value is listed as 55.6 % of the injected dose per org, the Blood is given as 0.4 % of the injected dose per org, the Bone is 34.7 % of the injected dose per org and the Kidneys was 1.05 % of the injected dose per org. For the same molecule, in data set [2] (0.01 mg), the Liver is recorded as 0.18 % of the injected dose per org, the Lung is 0.048 % of the injected dose per org, the Muscle is recorded as 0.6 % of the injected dose per org and the Stomach was 0.091 % of the injected dose per org. Besides, the Thyroid in data set [2] (0.01 mg) is listed as 0.008 % of the injected dose per org. In data set [2] (0.1 mg), the “Bladder + urine” value was 56.9 % of the injected dose per org, the Blood is 0.4 % of the injected dose per org, the Bone is given as 32.6 % of the injected dose per org and the Kidneys was 0.94 % of the injected dose per org. Besides, in data set [2] (0.1 mg), the Liver was 0.17 % of the injected dose per org, the Lung is listed as 0.480 % of the injected dose per org, the Muscle is listed as 0.6 % of the injected dose per org and the Stomach is 0.092 % of the injected dose per org. Further, the Thyroid in data set [2] (0.1 mg) is 0.011 % of the injected dose per org. Further, in data set [2] (1 mg), the “Bladder + urine” value is on record as 59.1 % of the injected dose per org, the Blood is recorded as 0.8 % of the injected dose per org, the Bone is 28.7 % of the injected dose per org and the Kidneys is listed as 1.03 % of the injected dose per org. Moreover, in data set [2] (1 mg), the Liver is listed as 0.22 % of the injected dose per org, the Lung is listed as 0.079 % of the injected dose per org, the Muscle is 1.1 % of the injected dose per org and the Stomach is reported as 0.090 % of the injected dose per org. Also, the Thyroid in data set [2] (1 mg) was 0.007 % of the injected dose per org. In data set [2] (in words), the “liver uptake with larger administered amounts” value is reported as “no increase in liver uptake at the expense of skeletal accumulation”. The “Lesion quotient (Q)” value in the data set with osteosarcoma came out at 1.27.
Turning to `O=P(O)(O)CP(=O)(O)O` [MDP, methanediphosphonic acid], the “Lesion quotient (Q)” value in the data set on osteosarcoma was determined as 1.0.
On to `CCCCN(CCCC)C(P(=O)(O)O)P(=O)(O)O` [DBA-MDP, N,N-dibutylaminomethanediphosphonic acid], for which, in the data set with lesion / normal bone, the “ratio Q for uptake of Tc-99m in a lesion vs normal bone” value was “by far the highest ratios Q”. Further, the blood clearance entry in data set [3] (current state of knowledge) is given as “not optimal”. Besides, the bone/background ratio entry in data set [3] is on record as “relatively poor”. In the data set with osteosarcoma, the “Lesion quotient (Q)” value is 1.16. The “accumulation in the lesions” value with bone lesions is on record as “distinctly higher”.
